Test results from PubChem BioAssay AID2060358 (Molecular Pharmacology Branch, DTP, NCI, 2025).

Test system: 254851-301-R-J1-PDC spheroids, viability % test/control
Test: Anticancer human tumor 254851-301-R-J1-PDC patient-derived colon carcinoma cell line growth inhibition [TAK]
Conditions: spheroids with HUVEC and MSC; for IC50: curve of first compound; for viability, T/C: stronger effect = lower value
Outline: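 Spheroids of 60% malignant cells, 25% HUVEC and 15% hMSC were exposed to targeted agents combined with TAK-243 or ipatasertib. Concentrations started at or near clinical Cmax (10 microM if unknown) and descended in half-log steps.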

[1] = second compound 0.3 µM, first compound 0.0316 µM
[2] = second compound 0.3 µM, first compound 0.1 µM
[3] = second compound 0.949 µM, first compound 0.0316 µM
[4] = second compound 0.949 µM, first compound 0.1 µM
[5] = second compound 3 µM, first compound 0.0316 µM
[6] = second compound 3 µM, first compound 0.1 µM
[7] = second compound 9.49 µM, first compound 0.0316 µM
[8] = second compound 9.49 µM, first compound 0.1 µM
[9] = second compound 30 µM, first compound 0.0316 µM
[10] = second compound 30 µM, first compound 0.1 µM
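Note: spheroids exposed to drugs for seven days before viability readout.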
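Throughout, for viability, T/C: 100% = DMSO vehicle control viability.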

CC(C)(C)c1nc(-c2cccc(NS(=O)(=O)c3c(F)cccc3F)c2F)c(-c2ccnc(N)n2)s1 + CC(C)NCC(C(=O)N1CCN(c2ncnc3c2C(C)CC3O)CC1)c1ccc(Cl)cc1
IC50 (second compound 0.3 µM): > 10000 nM
IC50 (second compound 0.949 µM): > 10000 nM
IC50 (second compound 3 µM): > 10000 nM
IC50 (second compound 9.49 µM): > 10000 nM
IC50 (second compound 30 µM): > 10000 nM
viability, T/C [1]: 114%
viability, T/C [2]: 103%
viability, T/C (second compound 0.3 µM, first compound 0.316 µM): 87.3%
viability, T/C (second compound 0.3 µM, first compound 1 µM): 84.8%
viability, T/C (second compound 0.3 µM, first compound 3.16 µM): 77%
viability, T/C (second compound 0.3 µM, first compound 10 µM): 72%
viability, T/C [3]: 115%
viability, T/C [4]: 104%
viability, T/C (second compound 0.949 µM, first compound 0.316 µM): 95.2%
viability, T/C (second compound 0.949 µM, first compound 1 µM): 81%
viability, T/C (second compound 0.949 µM, first compound 3.16 µM): 76%
viability, T/C (second compound 0.949 µM, first compound 10 µM): 75.4%
viability, T/C [5]: 106%
viability, T/C [6]: 107%
viability, T/C (second compound 3 µM, first compound 0.316 µM): 88.1%
viability, T/C (second compound 3 µM, first compound 1 µM): 79.4%
viability, T/C (second compound 3 µM, first compound 3.16 µM): 75.6%
viability, T/C (second compound 3 µM, first compound 10 µM): 63.8%
viability, T/C [7]: 101%
viability, T/C [8]: 105%
viability, T/C (second compound 9.49 µM, first compound 0.316 µM): 92.5%
viability, T/C (second compound 9.49 µM, first compound 1 µM): 78.4%
viability, T/C (second compound 9.49 µM, first compound 3.16 µM): 71.8%
viability, T/C (second compound 9.49 µM, first compound 10 µM): 64.7%
viability, T/C [9]: 79%
viability, T/C [10]: 81.7%
viability, T/C (second compound 30 µM, first compound 0.316 µM): 83.9%
viability, T/C (second compound 30 µM, first compound 1 µM): 69.1%
viability, T/C (second compound 30 µM, first compound 3.16 µM): 59.7%
viability, T/C (second compound 30 µM, first compound 10 µM): 54.6%

CC(C)CC(NC(=O)CNC(=O)c1cc(Cl)ccc1Cl)B1OC(=O)CC(CC(=O)O)(C(=O)O)O1 (stereo not given) + CC(C)NCC(C(=O)N1CCN(c2ncnc3c2C(C)CC3O)CC1)c1ccc(Cl)cc1
IC50 (second compound 0.3 µM): 53.7 nM
IC50 (second compound 0.949 µM): 49.7 nM
IC50 (second compound 3 µM): 49.2 nM
IC50 (second compound 9.49 µM): 56.9 nM
IC50 (second compound 30 µM): 57.6 nM
viability, T/C (second compound 0.3 µM, first compound 0.000316 µM): 103%
viability, T/C (second compound 0.3 µM, first compound 0.001 µM): 100%
viability, T/C (second compound 0.3 µM, first compound 0.00316 µM): 95.8%
viability, T/C (second compound 0.3 µM, first compound 0.01 µM): 101%
viability, T/C [1]: 73.7%
viability, T/C [2]: 22.2%
viability, T/C (second compound 0.949 µM, first compound 0.000316 µM): 98.6%
viability, T/C (second compound 0.949 µM, first compound 0.001 µM): 102%
viability, T/C (second compound 0.949 µM, first compound 0.00316 µM): 95.3%
viability, T/C (second compound 0.949 µM, first compound 0.01 µM): 95%
viability, T/C [3]: 67.3%
viability, T/C [4]: 23.2%
viability, T/C (second compound 3 µM, first compound 0.000316 µM): 95.8%
viability, T/C (second compound 3 µM, first compound 0.001 µM): 107%
viability, T/C (second compound 3 µM, first compound 0.00316 µM): 98.9%
viability, T/C (second compound 3 µM, first compound 0.01 µM): 102%
viability, T/C [5]: 70.2%
viability, T/C [6]: 17.9%
viability, T/C (second compound 9.49 µM, first compound 0.000316 µM): 96.8%
viability, T/C (second compound 9.49 µM, first compound 0.001 µM): 101%
viability, T/C (second compound 9.49 µM, first compound 0.00316 µM): 97.7%
viability, T/C (second compound 9.49 µM, first compound 0.01 µM): 95.1%
viability, T/C [7]: 76.6%
viability, T/C [8]: 24.5%
viability, T/C (second compound 30 µM, first compound 0.000316 µM): 78.2%
viability, T/C (second compound 30 µM, first compound 0.001 µM): 63%
viability, T/C (second compound 30 µM, first compound 0.00316 µM): 81.4%
viability, T/C (second compound 30 µM, first compound 0.01 µM): 86%
viability, T/C [9]: 80%
viability, T/C [10]: 24.4%
